# According to US20150011541A1, “PIPECOLATE-SULFONAMIDES FOR TREATMENT OF PSYCHIATRIC DISORDERS” (Max-Planck-Gesellschaft zur Förderung der Wissenschaften …, priority 2011, published 2015):
# Read-outs that look alike come from different tables or passages of the source.
# Tests used:
# human FKBP51FK1 = target: T1, human FKBP51FK1 (Homo sapiens, UniProt Q13451); test: Fluorescence polarization assay, binding to FK1 domain of FKBP51; conditions: for inhibition at 5 µM: read-out: FKBP 51 FK1 % inhibition; for IC50: binding affinity, fluorescence polarization assay
# T1 sequence (Q13451 42-130 limits assumed): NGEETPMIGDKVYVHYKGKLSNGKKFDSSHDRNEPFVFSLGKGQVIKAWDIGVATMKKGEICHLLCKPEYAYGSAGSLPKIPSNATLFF
# human FKBP52FK1 = target: T2, human FKBP52FK1 (Homo sapiens, UniProt Q02790); test: Fluorescence polarization assay, binding to FK1 domain of FKBP52; conditions: for inhibition at 5 µM: read-out: FKBP52 FK1 % inhibition; for IC50: binding affinity, fluorescence polarization assay
# T2 sequence (Q02790 50-138 limits assumed): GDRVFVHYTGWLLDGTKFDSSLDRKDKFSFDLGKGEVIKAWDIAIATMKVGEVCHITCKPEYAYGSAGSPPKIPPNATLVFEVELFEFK
# [1] = at a concentration of 5 μM, library testing
inhibition at 5 µM (human FKBP51FK1; [1]),inhibition at 5 µM (human FKBP52FK1; [1]),SMILES,other results
,5.7%,"COc1ccc(CC[C@@H](OC(=O)[C@@H]2CCCCN2S(=O)(=O)c2ccoc2)c2cccc(OCC(=O)O)c2)cc1OC [Compound 53, 2-(3-((R)-3-(3,4-dimethoxyphenyl)-1-((S)-1-(furan-3-ylsulfonyl)piperidine-2-carbonyloxy)propyl)phenoxy)acetic acid]",inhibition at 5 µM (human FKBP51FK1): 2%
5.5%,6.6%,"COc1ccc(CC[C@@H](OC(=O)[C@@H]2CCCCN2S(=O)(=O)c2cc3ccccc3o2)c2cccc(OCC(=O)O)c2)cc1OC [Compound 54, 2-(3-((R)-1-((S)-1-(benzofuran-2-ylsulfonyl)piperidine-2-carbonyloxy)-3-(3,4-dimethoxyphenyl)propyl)phenoxy)acetic acid]",
3.2%,8.5%,"COc1ccc(CC[C@@H](OC(=O)[C@@H]2CCCCN2S(=O)(=O)c2cccs2)c2cccc(OCC(=O)O)c2)cc1OC [Compound 55, 2-(3-((R)-3-(3,4-dimethoxyphenyl)-1-((S)-1-(thiophen-2-ylsulfonyl)piperidine-2-carbonyloxy)propyl)phenoxy)acetic acid]",
3.2%,9.5%,"COc1ccc(CC[C@@H](OC(=O)[C@@H]2CCCCN2S(=O)(=O)c2ccc(-c3ccccc3)s2)c2cccc(OCC(=O)O)c2)cc1OC [Compound 56, 2-(3-((R)-3-(3,4-dimethoxyphenyl)-1-((S)-1-(5-phenylthiophen-2-ylsulfonyl)piperidine-2-carbonyloxy)propyl)phenoxy)acetic acid]",
3.2%,4.7%,"COc1ccc(CC[C@@H](OC(=O)[C@@H]2CCCCN2S(=O)(=O)c2csc3ccccc23)c2cccc(OCC(=O)O)c2)cc1OC [Compound 57, 2-(3-((R)-1-((S)-1-(benzo[b]thiophen-3-ylsulfonyl)piperidine-2-carbonyloxy)-3-(3,4-dimethoxyphenyl)propyl)phenoxy)acetic acid]",
5.5%,1.9%,"COc1ccc(CC[C@@H](OC(=O)[C@@H]2CCCCN2S(=O)(=O)c2c(C)nn(C)c2C)c2cccc(OCC(=O)O)c2)cc1OC [Compound 61, 2-(3-((R)-3-(3,4-dimethoxyphenyl)-1-((S)-1-(1,3,5-trimethyl-1H-pyrazol-4-ylsulfonyl)piperidine-2-carbonyloxy)propyl)phenoxy)acetic acid]",
0.9%,4.7%,"COc1ccc(CC[C@@H](OC(=O)[C@@H]2CCCCN2S(=O)(=O)c2c(C)nn(-c3ccccc3)c2C)c2cccc(OCC(=O)O)c2)cc1OC [Compound 62, 2-(3-((R)-3-(3,4-dimethoxyphenyl)-1-((S)-1-(3,5-dimethyl-1-phenyl-1H-pyrazol-4-ylsulfonyl)piperidine-2-carbonyloxy)propyl)phenoxy)acetic acid]",

# The next lines start with the compound.
SMILES,inhibition at 5 µM (human FKBP51FK1; [1]),inhibition at 5 µM (human FKBP52FK1; [1]),other results
"COc1ccc(CC[C@@H](OC(=O)[C@@H]2CCCCN2S(=O)(=O)c2ccccc2Cl)c2cccc(OCC(=O)O)c2)cc1OC [Compound 45, 2-(3-((R)-1-((S)-1-(2-chlorophenylsulfonyl)piperidine-2-carbonyloxy)-3-(3,4-dimethoxyphenyl)propyl)phenoxy)acetic acid]",1.4%,9.5%,
"COc1ccc(CC[C@@H](OC(=O)[C@@H]2CCCCN2S(=O)(=O)c2c(Cl)cccc2Cl)c2cccc(OCC(=O)O)c2)cc1OC [Compound 46, 2-(3-((R)-1-((S)-1-(2,6-dichlorophenylsulfonyl)piperidine-2-carbonyloxy)-3-(3,4-dimethoxyphenyl)propyl)phenoxy)acetic acid]",3.2%,9.5%,
"COc1ccc(CC[C@@H](OC(=O)[C@@H]2CCCCN2S(=O)(=O)c2cccc(-c3nnc(C)o3)c2)c2cccc(OCC(=O)O)c2)cc1OC [Compound 47, 2-(3-((R)-3-(3,4-dimethoxyphenyl)-1-((S)-1-(3-(5-methyl-1,3,4-oxadiazol-2-yl)phenylsulfonyl)piperidine-2-carbonyloxy)propyl)phenoxy)acetic acid]",4.9%,3.8%,
"COc1ccc(CC[C@@H](OC(=O)[C@@H]2CCCCN2S(=O)(=O)c2ccc(C(F)(F)F)c(Cl)c2)c2cccc(OCC(=O)O)c2)cc1OC [Compound 48, 2-(3-((R)-1-((S)-1-(3-chloro-4-(trifluoromethyl)phenylsulfonyl)piperidine-2-carbonyloxy)-3-(3,4-dimethoxyphenyl)propyl)phenoxy)acetic acid]",-0.2%,11.4%,
"COc1ccc(CC[C@@H](OC(=O)[C@@H]2CCCCN2S(=O)(=O)c2cccc3c2ccn3C)c2cccc(OCC(=O)O)c2)cc1OC [Compound 49, 2-(3-((R)-3-(3,4-dimethoxyphenyl)-1-((S)-1-(1-methyl-1H-indol-4-ylsulfonyl)piperidine-2-carbonyloxy)propyl)phenoxy)acetic acid]",-0.8%,6.6%,
"COc1ccc(CC[C@@H](OC(=O)[C@@H]2CCCCN2S(=O)(=O)c2ccc3c(ccn3C)c2)c2cccc(OCC(=O)O)c2)cc1OC [Compound 50, 2-(3-((R)-3-(3,4-dimethoxyphenyl)-1-((S)-1-(1-methyl-1H-indol-5-ylsulfonyl)piperidine-2-carbonyloxy)propyl)phenoxy)acetic acid]",10%,10.4%,
"COc1ccc(CC[C@@H](OC(=O)[C@@H]2CCCCN2S(=O)(=O)c2ccc3c(c2)N(C)CCO3)c2cccc(OCC(=O)O)c2)cc1OC [Compound 51, 2-(3-((R)-3-(3,4-dimethoxyphenyl)-1-((S)-1-(4-methyl-3,4-dihydro-2H-benzo[b][1,4]oxazin-6-ylsulfonyl)piperidine-2-carbonyloxy)propyl)phenoxy)acetic acid]",9.5%,6.6%,
"COc1ccc(CC[C@@H](OC(=O)[C@@H]2CCCCN2S(=O)(=O)c2ccc(C)cc2)c2cccc(OCC(=O)O)c2)cc1OC [Compound 63, 2-(3-((R)-3-(3,4-dimethoxyphenyl)-1-((S)-1-tosylpiperidine-2-carbonyloxy)propyl)phenoxy)acetic acid]",,,inhibition at 5 µM (human FKBP51FK1): 3.2%; inhibition at 5 µM (human FKBP52FK1): 3.8%
"CCOC(=O)C1CCCCN1S(=O)(=O)Cc1ccccc1 (centres unmarked) [Ref. 1, Ethyl 1-(benzylsulfonyl)piperidine-2-carboxylate, reference compound]",,,IC50 (human FKBP51FK1): > 100 µM; IC50 (human FKBP52FK1): > 100 µM
"CCOC(=O)C1CCCCN1S(=O)(=O)c1cccc([N+](=O)[O-])c1 (centres unmarked) [Ref. 2, Ethyl 1-(3-nitrophenylsulfonyl)piperidine-2-carboxylate, reference compound]",,,IC50 (human FKBP51FK1): > 100 µM; IC50 (human FKBP52FK1): > 100 µM
"COc1ccc(CCCOC(=O)C2CCCCN2S(=O)(=O)Cc2ccccc2)cc1OC (centres unmarked) [Ref. 3, 3-(3,4-dimethoxyphenyl)propyl 1-(benzylsulfonyl)piperidine-2-carboxylate, reference compound]",,,IC50 (human FKBP51FK1): > 100 µM; IC50 (human FKBP52FK1): > 100 µM
"O=C(OCCCc1cccnc1)C1CCCCN1S(=O)(=O)c1cccc([N+](=O)[O-])c1 (centres unmarked) [Ref. 4, 3-(pyridin-3-yl)propyl 1-(3-nitrophenylsulfonyl)piperidine-2-carboxylate, reference compound]",,,IC50 (human FKBP51FK1): > 100 µM; IC50 (human FKBP52FK1): > 100 µM
